Data set [1] deals with Rhizoctonia solani. As to the kind of experiment: Filter disk fumigation method, mycelial growth inhibition on PDA. Conditions: for Fumig1 % inhibition: fumigation experiment 1; for Fumig2 % inhibition: fumigation experiment 2. The data set is classed as cell-based, Rhizoctonia solani AG-4, isolate Rs 23A. As for the experimental part:
(§1) Fungal isolate and preparation of inoculum: Rhizoctonia solani AG-4, isolate Rs 23A is a highly virulent pathogenic isolate which infects many vegetables, ornamentals and turfgrasses (Lewis, J. A., and G. C. Papavizas, Soil Biology and Biochemistry, 9:195-201 (1987)). The fungus was grown in potato dextrose agar (PDA) plates and fungal plugs from the freshly growing mycelium were mixed with moist sterilized cracked wheat in a 2 L flask for 15 days in dark at 22° C. (Lakshman, D. K., et al., Proceedings of the National Academy of Science, USA, 95: 6425-6429 (1998)). The infested wheat was air dried in a sterile hood for 3 days, blended in a homogenizer and sieved through a mesh and stored at 2° C. before soil inoculation. A dose response of the inocula was carried out by thoroughly mixing using 0.25, 0.5, 0.75, 1.0, 1.25 and 1.50 g inoculums per Kg dry weight potting soil plus sterile water to maintain 25-30% moisture and incubating at room temperature for two weeks before sowing cucumber (cv muncher) seeds with the infested soil. The percent germination and post-emergence damping off of cucumber seedlings were recorded. The lowest inoculums dose that induced 100% postemergence damping off was estimated to be 1 to 1.25 g/Kg soil for inocula prepared over the span of the experiments. For soil fumigation with plant extracts (PEs), each time the minimum inoculum dose giving rise to 100% damping off was used.
In the second protocol, the chemical was kept not in direct contact with the fungus and we hypothesized that the plant extract will most likely influence the growth of the pathogen by fumigation action. In this approach, three sterile 15 mm filter paper (Whatman International Ltd, Maidstone, UK) disks were placed on the edge of each of three plates on the PDA. Each disk was impregnated in the center with various amounts (5-50 ul/disk) of the test solution/suspension. For negative control, only soybean oil was placed in the filter disk. […] The average radial growth was calculated and the experiment was repeated one more time. Percent growth inhibition was calculated as reported for poison bed assay.

In data set [2] the test system is Rhizoctonia solani. As to the kind of experiment: Poison food technique (contact action), mycelial growth inhibition in PDA. Format: cell-based, Rhizoctonia solani AG-4, isolate Rs 23A. The following applies: for PoisonB1 % inhibition: poison bed experiment 1; for PoisonB2 % inhibition: poison bed experiment 2. As for the experimental part: as §1
In vitro bioassays: Two in vitro bioassay methods were used to investigate the mycelial growth inhibitory potentials of PEs. In the poison food technique, test chemical/plant extract was mixed at concentrations of 15, 30, 45, 60, 75, and 150 μl per 20 ml autoclaved PDA at 50° C., poured on three sterile disposable plastic plates (100×15 mm, Fisherbrand) at 20 ml/plate and cooled to room temperature to solidify (Dhingra, O.D., and J. B. Sinclair, 1995, Basic Plant Pathology Methods, 2nd Edition, Lewis Publishers, Boca Raton and London). […] Each plate was seeded in the center with a 5 mm diameter agar disk of the freshly grown Rhizoctonia pathogen, mycelial side facing the medium, and sealed with stretched Parafilm® M (Fisher Scientific). The plates were incubated in the dark at room temperature and when the pathogen reached to the edge of the plates in the control treatment (soybean oil), radial measurement of fungal growth in plates treated with PEs were recorded by taking three measurements from each plate. The experiment was repeated one more time. The percent mycelial growth inhibition (MGI) due to PE was calculated using the following formula: […] where dc=Avg. radial growth in mm of pathogen in control plate; dt=avg. radial growth in mm of pathogen in treated plate.

Data set [3] deals with Rhizoctonia solani. Put plainly: Fungicidal vs fungistatic potential (regrowth of mycelial plugs on fresh PDA, 7 days). Format: cell-based, Rhizoctonia solani AG-4, isolate Rs 23A. The method, then: The fungicidal and fungistatic potential of the PEs were determined by the method described by Garber and Houstan (Garber R. H., and B. R. Houston, Phytopathology, 49: 449-450 (1959)). In brief, three 5 mm diameter plugs were taken from the peripheral mycelial growth from each plate and placed in a fresh PDA plate. Following incubation at room temperature for 7 days, observations were recorded for new mycelial growth (fungistatic) or no mycelial growth (fungicidal). As control, peripheral mycelial plugs from soybean oil amended PDA plates were checked for fresh mycelial growth in fresh PDA plates.

Data set [4] concerns Rhizoctonia solani. As to the kind of experiment: Greenhouse suppression of damping off of cucumber seedlings in R. solani infested soil amended with plant extract. Conditions: for % Disease suppression (+ PE + R. solani): cucumber damping off, soil amendment at 0.3% (v/w), four weeks after sowing. The data set is classed as in vivo, Rhizoctonia solani AG-4, isolate Rs 23A.
In data set [5] the test system is cucumber seeds. As to the kind of experiment: Greenhouse assay of seed germination and phytotoxicity, soil treated with plant extract alone. The following applies: cucumber, in vivo, 0.3 % of PE in soil (3000 ppm). As for the experimental part: Soil treatment: For each treatment, 300 g of dry greenhouse soli (Pro-mix, Premier Horticulture LTD, Red Hill, Pa.) was thoroughly mixed with Rhizoctonia inoculum and incubated for 15 days as described above. […] The infested soil treated with only the carrier solution served as an untreated control. Following the treatment, the soil was thoroughly stirred to mix the contents and incubated in a double polythene bag closed tightly in the dark at room temperature for four days for fumigation to occur. Following the incubation, the bag was opened to allow as much PE to dissipate as possible. This was done by sprinkling the surface soil with sterile water every other day, and stirring the soil once every day for seven days. For assay of effect on seed germination and phytotoxicity of the plant extracts, soil was treated with plant extract formulations alone.
Greenhouse studies: Treated soil from each treatment was distributed to 4-inch plastic pots into which 12 seeds of cucumbers (95-100% germination) were sown and lightly watered to keep soil moist. The treatments were color coded and pots were randomized across treatment. All plants were kept in a greenhouse between 20° C. (night) to 26° C. (day) with 14 h of light. There were three pots per treatment in each experiment, and the experiment was repeated three times. As positive control, a broad spectrum popular soil fungicide Banrot® 40 WP (The Scotts Company, Ohio) was used following manufacturer's recommendation to control the disease. Total number of seedlings without any sign of damping off in each pot was recorded and percentage of disease suppression were calculated four weeks after sowing cucumber seeds.

Take `C=CC(C)(O)CCC=C(C)CCC=C(C)C` (mixture of isomers) [Nerolidol]: the Fumig1 % inhibition in data set [1] (amount oil 15 μL/20 mL plate), in data set [1] (amount oil 30 μL/20 mL plate), in data set [1] (amount oil 45 μL/20 mL plate), in data set [1] (amount oil 60 μL/20 mL plate), in data set [1] (amount oil 75 μL/20 mL plate) and in data set [1] (amount oil 150 μL/20 mL plate) was 0% throughout. Further, the Fumig2 % inhibition in data set [1] (amount oil 15 μL/20 mL plate) is 0%; in data set [1] (amount oil 30 μL/20 mL plate) it was 40%; in data set [1] (amount oil 45 μL/20 mL plate), 42%; in data set [1] (amount oil 60 μL/20 mL plate) it was 41%; in data set [1] (amount oil 75 μL/20 mL plate), 42%; in data set [1] (amount oil 150 μL/20 mL plate), 41%. Also, the PoisonB1 % inhibition in data set [2] (amount oil 15 μL/20 mL plate) amounted to 71%; in data set [2] (amount oil 30 μL/20 mL plate) it was 78%; in data set [2] (amount oil 45 μL/20 mL plate), 83%; in data set [2] (amount oil 60 μL/20 mL plate), 84%; in data set [2] (amount oil 75 μL/20 mL plate), 87%; in data set [2] (amount oil 150 μL/20 mL plate) it was 89%. For the same molecule, the PoisonB2 % inhibition in data set [2] (amount oil 15 μL/20 mL plate) came to 78%; in data set [2] (amount oil 30 μL/20 mL plate), 81%; in data set [2] (amount oil 45 μL/20 mL plate), 87%; in data set [2] (amount oil 60 μL/20 mL plate), 90%; in data set [2] (amount oil 75 μL/20 mL plate), 92%; in data set [2] (amount oil 150 μL/20 mL plate), 99%. Also, the “Effect (fumigation)” value in data set [3] (amount oil 15 μL/20 mL plate), in data set [3] (amount oil 30 μL/20 mL plate), in data set [3] (amount oil 45 μL/20 mL plate), in data set [3] (amount oil 60 μL/20 mL plate), in data set [3] (amount oil 75 μL/20 mL plate) and in data set [3] (amount oil 150 μL/20 mL plate) was “S” throughout. Moreover, the “Effect (poison bed, contact action)” value in data set [3] (amount oil 15 μL/20 mL plate), in data set [3] (amount oil 30 μL/20 mL plate), in data set [3] (amount oil 45 μL/20 mL plate), in data set [3] (amount oil 60 μL/20 mL plate), in data set [3] (amount oil 75 μL/20 mL plate) and in data set [3] (amount oil 150 μL/20 mL plate) was “S” each time.

Take `C=CCN=C=S` [Allyisothiocynate]: in data set [1] (in vitro, filter disk), the “Inhibition of R. solani growth by fumigation action, in words” value is recorded as “potent inhibitors”. In addition, the “% Disease suppression (+ PE + R. solani)” value in data set [4] came out at 88.92%. The “Inhibition of R. solani growth by contact (poison bed assay), in words” value in data set [2] (in vitro, PDA) is “potent inhibitors”. Also, in data set [3] (in vitro, fumigation and contact, all concentrations tested), the “Fungicidal vs fungistatic nature at all concentrations tested” value is given as “fungicidal”.

Consider `C=CCN=C=S` [Allylisothiocyanate], for which the Fumig1 % inhibition in data set [1] (amount oil 15 μL/20 mL plate), in data set [1] (amount oil 30 μL/20 mL plate), in data set [1] (amount oil 45 μL/20 mL plate), in data set [1] (amount oil 60 μL/20 mL plate), in data set [1] (amount oil 75 μL/20 mL plate) and in data set [1] (amount oil 150 μL/20 mL plate) was 100% throughout. The Fumig2 % inhibition in data set [1] (amount oil 15 μL/20 mL plate), in data set [1] (amount oil 30 μL/20 mL plate), in data set [1] (amount oil 45 μL/20 mL plate), in data set [1] (amount oil 60 μL/20 mL plate), in data set [1] (amount oil 75 μL/20 mL plate) and in data set [1] (amount oil 150 μL/20 mL plate) was 100% each time. Further, the PoisonB1 % inhibition in data set [2] (amount oil 15 μL/20 mL plate), in data set [2] (amount oil 30 μL/20 mL plate), in data set [2] (amount oil 45 μL/20 mL plate), in data set [2] (amount oil 60 μL/20 mL plate), in data set [2] (amount oil 75 μL/20 mL plate) and in data set [2] (amount oil 150 μL/20 mL plate) was 100% throughout. Moreover, the PoisonB2 % inhibition in data set [2] (amount oil 15 μL/20 mL plate), in data set [2] (amount oil 30 μL/20 mL plate), in data set [2] (amount oil 45 μL/20 mL plate), in data set [2] (amount oil 60 μL/20 mL plate), in data set [2] (amount oil 75 μL/20 mL plate) and in data set [2] (amount oil 150 μL/20 mL plate) was 100% in each case.

As to `C=CCc1ccc(O)c(OC)c1` [Eugenol], in data set [5], the “Avg. seed germination (+ PE only)” value is reported as 10.00. Also, the “% Disease suppression (+ PE + R. solani)” value in data set [4] is 44.42%. The “Avg. seed Germination (+ PE + R. solani)” value in data set [4] (cucumber, 12 seeds sown per pot, infested soil amended with 0.3% PE) amounted to 5.33.
